Experimental data published in US20260206755A1, “COMPOUNDS AND COMPOSITIONS HAVING KNOCK-DOWN OR BLOOD FEED INHIBITION ACTIVITY AGAINST INSECT PESTS” (priority 2017, published 2026).
Read-outs that look alike come from different tables or passages of the source.

Tested on: Anopheles stephensi
Assay: Anopheles stephensi treated well plate contact test: knockdown and mortality
Assay type: in vivo
Conditions: for mortality at 0.2 ppm / pest or weed control at 0.2 ppm / mortality at 2 ppm / pest or weed control at 2 ppm / mortality at 20 ppm / pest or weed control at 20 ppm / mortality at 200 ppm / pest or weed control at 200 ppm / mortality at 0.02 ppm / pest or weed control at 0.02 ppm: Anopheles stephensi; for pest or weed control at 0.2 ppm / pest or weed control at 2 ppm / pest or weed control at 20 ppm / pest or weed control at 200 ppm / Knock Down, with TFNA-AM / pest or weed control at 0.02 ppm / Knock Down, without TFNA-AM: knockdown after 1 hour; for pest or weed control at 0.2 ppm / pest or weed control at 2 ppm / pest or weed control at 20 ppm / pest or weed control at 200 ppm / pest or weed control at 0.02 ppm: read-out: Knock Down, without TFNA-AM
Procedure: Examples Anopheles stephensi (Indian Malaria Mosquito)
The individual wells of twelve (12) well tissue culture plates were treated with 200 μl of an ethanol solution containing a test compound of Table 1 or Table 2 at a defined concentration and repeated with also 200 μl of an ethanol solution containing in addition 2 ppm TFNA-AM. Once the deposits were dry, five non-blood fed adult female Anopheles stephensi (between two to five day old) were added to each well, and sustained with a 10% sucrose solution in a cotton wool plug. Assessment of the knockdown after 1 hour, and mortality after 24 and 48 hours was carried out.
In case of multiple tests, the mean value is reported.

[1] = test compound 0.2 ppm, without TFNA-AM, after 24 hours, read-out: mortality % 24, without TFNA-AM
[2] = test compound 0.2 ppm, without TFNA-AM, after 48 hours, read-out: mortality % 48, without TFNA-AM
[3] = test compound 0.2 ppm, without TFNA-AM
[4] = test compound 2 ppm, without TFNA-AM, after 24 hours, read-out: mortality % 24, without TFNA-AM
[5] = test compound 2 ppm, without TFNA-AM, after 48 hours, read-out: mortality % 48, without TFNA-AM
[6] = test compound 2 ppm, without TFNA-AM
[7] = test compound 20 ppm, without TFNA-AM, after 24 hours, read-out: mortality % 24, without TFNA-AM
[8] = test compound 20 ppm, without TFNA-AM, after 48 hours, read-out: mortality % 48, without TFNA-AM
[9] = test compound 20 ppm, without TFNA-AM
[10] = test compound 200 ppm, without TFNA-AM, after 24 hours, read-out: mortality % 24, without TFNA-AM
[11] = test compound 200 ppm, without TFNA-AM, after 48 hours, read-out: mortality % 48, without TFNA-AM
[12] = test compound 200 ppm, without TFNA-AM, adult females
[13] = test compound 0.2 ppm plus 2 ppm TFNA-AM, after 24 hours
[14] = test compound 0.2 ppm plus 2 ppm TFNA-AM, after 48 hours
[15] = test compound 0.2 ppm plus 2 ppm TFNA-AM
[16] = test compound 2 ppm plus 2 ppm TFNA-AM, after 24 hours
[17] = test compound 2 ppm plus 2 ppm TFNA-AM, after 48 hours
[18] = test compound 2 ppm plus 2 ppm TFNA-AM
[19] = test compound 20 ppm plus 2 ppm TFNA-AM, after 24 hours
[20] = test compound 20 ppm plus 2 ppm TFNA-AM, after 48 hours
[21] = test compound 20 ppm plus 2 ppm TFNA-AM
[22] = test compound 200 ppm plus 2 ppm TFNA-AM, after 24 hours
[23] = test compound 200 ppm plus 2 ppm TFNA-AM, after 48 hours
[24] = test compound 200 ppm plus 2 ppm TFNA-AM
[25] = 24 h, read-out: mortality % 24, without TFNA-AM
[26] = 48 h, read-out: mortality % 48, without TFNA-AM
[27] = test compound 0.02 ppm, without TFNA-AM
[28] = test compound 0.02 ppm plus 2 ppm TFNA-AM, after 24 hours
[29] = test compound 0.02 ppm plus 2 ppm TFNA-AM

Cc1cc(C(F)(C(F)(F)F)C(F)(F)F)ccc1NC(=O)c1cccc(I)c1C(=O)NC(C)(C)CS(C)(=O)=O [Flubendiamide]
60%: mortality % 24, with TFNA-AM [22]
80%: mortality % 24, with TFNA-AM [13] | mortality % 24, with TFNA-AM [16] | mortality % 24, with TFNA-AM [19]
40%: mortality % 48, with TFNA-AM [14] | mortality % 48, with TFNA-AM [17] | mortality % 48, with TFNA-AM [20] | mortality % 48, with TFNA-AM [23]
0%: mortality at 0.2 ppm [1] | mortality at 0.2 ppm [2] | pest or weed control at 0.2 ppm [3] | mortality at 2 ppm [4] | mortality at 2 ppm [5] | pest or weed control at 2 ppm [6] | mortality at 20 ppm [7] | mortality at 20 ppm [8] | pest or weed control at 20 ppm [9] | mortality at 200 ppm [10] | mortality at 200 ppm [11] | pest or weed control at 200 ppm [12]
100%: Knock Down, with TFNA-AM [15] | Knock Down, with TFNA-AM [18] | Knock Down, with TFNA-AM [21] | Knock Down, with TFNA-AM [24]

CNC(=O)Oc1cccc2c1OC(C)(C)O2 [Bendiocarb]
100%: mortality at 2 ppm [25] | mortality at 20 ppm [25] | mortality at 2 ppm [26] | mortality at 20 ppm [26] | pest or weed control at 2 ppm [6] | pest or weed control at 20 ppm [9] | Knock Down, with TFNA-AM [29] | mortality % 24, with TFNA-AM [13] | mortality % 48, with TFNA-AM [14] | Knock Down, with TFNA-AM [15] | mortality % 24, with TFNA-AM [16] | mortality % 48, with TFNA-AM [17] | Knock Down, with TFNA-AM [18] | mortality % 24, with TFNA-AM [19] | mortality % 48, with TFNA-AM [20] | Knock Down, with TFNA-AM [21]
20%: pest or weed control at 0.2 ppm [3] | mortality % 24, with TFNA-AM [28]
60%: mortality at 0.2 ppm [25] | mortality at 0.2 ppm [26]
0%: mortality at 0.02 ppm [25] | mortality at 0.02 ppm [26] | pest or weed control at 0.02 ppm [27]

Cc1c(COC(=O)[C@@H]2[C@H](/C=C(\Cl)C(F)(F)F)C2(C)C)cccc1-c1ccccc1 (racemic) [Bifenthrin]
20%: mortality at 0.02 ppm (test compound 0.02 ppm, without TFNA-AM, after 24 hours, read-out: mortality % 24, without TFNA-AM) | pest or weed control at 0.02 ppm [27] | pest or weed control at 0.2 ppm [3]
100%: mortality at 0.2 ppm [1] | mortality at 0.2 ppm [2] | mortality at 2 ppm [4] | mortality at 2 ppm [5] | pest or weed control at 2 ppm [6] | mortality at 20 ppm [7] | mortality at 20 ppm [8] | pest or weed control at 20 ppm [9] | mortality % 24, with TFNA-AM [28] | mortality % 48, with TFNA-AM (test compound 0.02 ppm plus 2 ppm TFNA-AM, after 48 hours) | Knock Down, with TFNA-AM [29] | mortality % 24, with TFNA-AM [13] | mortality % 48, with TFNA-AM [14] | Knock Down, with TFNA-AM [15] | mortality % 24, with TFNA-AM [16] | mortality % 48, with TFNA-AM [17] | Knock Down, with TFNA-AM [18] | mortality % 24, with TFNA-AM [19] | mortality % 48, with TFNA-AM [20] | Knock Down, with TFNA-AM [21]
60%: mortality at 0.02 ppm (test compound 0.02 ppm, without TFNA-AM, after 48 hours, read-out: mortality % 48, without TFNA-AM)

CO/C=C(/C(=O)OC)c1ccccc1COc1cccc(C(F)(F)F)n1 [Picoxystrobin]
20%: mortality % 48, with TFNA-AM [14]
30%: mortality % 24, with TFNA-AM [13] | Knock Down, without TFNA-AM [9]
90%: mortality % 24, without TFNA-AM (test compound 20 ppm, without TFNA-AM, after 24 hours)
0%: mortality % 24, without TFNA-AM (test compound 0.2 ppm, without TFNA-AM, after 24 hours) | mortality % 48, without TFNA-AM (test compound 0.2 ppm, without TFNA-AM, after 48 hours) | Knock Down, without TFNA-AM [3] | mortality % 48, without TFNA-AM (test compound 2 ppm, without TFNA-AM, after 48 hours) | Knock Down, without TFNA-AM [6]
100%: Knock Down, with TFNA-AM [15] | Knock Down, with TFNA-AM [18] | mortality % 24, with TFNA-AM [19] | mortality % 48, with TFNA-AM [20] | Knock Down, with TFNA-AM [21] | mortality % 48, without TFNA-AM (test compound 20 ppm, without TFNA-AM, after 48 hours) | mortality % 24, with TFNA-AM [22] | mortality % 48, with TFNA-AM [23] | Knock Down, with TFNA-AM [24] | mortality % 24, without TFNA-AM (test compound 200 ppm, without TFNA-AM, after 24 hours) | mortality % 48, without TFNA-AM (test compound 200 ppm, without TFNA-AM, after 48 hours) | Knock Down, without TFNA-AM [12]
50%: mortality % 24, without TFNA-AM (test compound 2 ppm, without TFNA-AM, after 24 hours)
80%: mortality % 24, with TFNA-AM [16] | mortality % 48, with TFNA-AM [17]

Nc1nc(N)nc(NC2CC2)n1 [Cyromazine]
60%: mortality % 24, with TFNA-AM [19]
20%: mortality % 24, with TFNA-AM [13] | mortality % 24, with TFNA-AM [16]
100%: Knock Down, with TFNA-AM [15] | Knock Down, with TFNA-AM [18] | Knock Down, with TFNA-AM [21] | Knock Down, with TFNA-AM [24]
0%: mortality at 0.2 ppm [1] | mortality at 0.2 ppm [2] | pest or weed control at 0.2 ppm [3] | mortality at 2 ppm [4] | mortality at 2 ppm [5] | pest or weed control at 2 ppm [6] | mortality at 20 ppm [7] | mortality at 20 ppm [8] | pest or weed control at 20 ppm [9] | mortality at 200 ppm [10] | mortality at 200 ppm [11] | pest or weed control at 200 ppm [12] | mortality % 48, with TFNA-AM [14] | mortality % 48, with TFNA-AM [17]
40%: mortality % 48, with TFNA-AM [20] | mortality % 48, with TFNA-AM [23]
80%: mortality % 24, with TFNA-AM [22]

CO/C=C(/C(=O)OC)c1ccccc1Oc1ncc(C(F)(F)F)s1 [Compound 54]
10%: mortality % 48, with TFNA-AM [14]
0%: mortality at 0.2 ppm [1] | mortality at 0.2 ppm [2] | pest or weed control at 0.2 ppm [3] | pest or weed control at 2 ppm [6]
90%: Knock Down, with TFNA-AM [15]
60%: mortality at 2 ppm [4]
40%: mortality at 2 ppm [5]
100%: mortality at 20 ppm [7] | mortality at 20 ppm [8] | pest or weed control at 20 ppm [9] | mortality at 200 ppm [10] | mortality at 200 ppm [11] | pest or weed control at 200 ppm [12] | mortality % 24, with TFNA-AM [16] | mortality % 48, with TFNA-AM [17] | Knock Down, with TFNA-AM [18] | mortality % 24, with TFNA-AM [19] | mortality % 48, with TFNA-AM [20] | Knock Down, with TFNA-AM [21] | mortality % 24, with TFNA-AM [22] | mortality % 48, with TFNA-AM [23] | Knock Down, with TFNA-AM [24]

CON=C(C(=O)OC)c1ccccc1CON=C(C)c1cccc(C(F)(F)F)c1 [Trifloxystrobin]
0%: mortality at 0.2 ppm [1] | mortality at 0.2 ppm [2] | pest or weed control at 0.2 ppm [3] | mortality at 2 ppm [4] | mortality at 2 ppm [5] | mortality at 20 ppm [7] | mortality at 20 ppm [8] | mortality at 200 ppm [10] | mortality at 200 ppm [11] | mortality % 24, with TFNA-AM [13] | mortality % 48, with TFNA-AM [14]
50%: pest or weed control at 2 ppm [6]
60%: mortality % 24, with TFNA-AM [16]
100%: Knock Down, with TFNA-AM [15] | Knock Down, with TFNA-AM [18] | mortality % 24, with TFNA-AM [19] | mortality % 48, with TFNA-AM [20] | Knock Down, with TFNA-AM [21] | mortality % 24, with TFNA-AM [22] | mortality % 48, with TFNA-AM [23] | Knock Down, with TFNA-AM [24]
80%: pest or weed control at 200 ppm [12]
70%: pest or weed control at 20 ppm [9] | mortality % 48, with TFNA-AM [17]

CCc1nn(C)c(C(=O)NCc2ccc(C(C)(C)C)cc2)c1Cl [Tebufenpyrad]
67%: mortality at 200 ppm [11]
27%: mortality % 24, with TFNA-AM [16]
100%: mortality % 24, with TFNA-AM [22] | mortality % 48, with TFNA-AM [23]
20%: mortality at 20 ppm [8]
0%: mortality at 0.2 ppm [1] | mortality at 0.2 ppm [2] | pest or weed control at 0.2 ppm [3] | mortality at 2 ppm [4] | mortality at 2 ppm [5] | pest or weed control at 2 ppm [6] | pest or weed control at 20 ppm [9] | pest or weed control at 200 ppm [12] | mortality % 24, with TFNA-AM [13] | mortality % 48, with TFNA-AM [14]
93%: Knock Down, with TFNA-AM [15] | Knock Down, with TFNA-AM [18] | Knock Down, with TFNA-AM [21] | Knock Down, with TFNA-AM [24]
13%: mortality at 20 ppm [7]
73%: mortality at 200 ppm [10]
80%: mortality % 24, with TFNA-AM [19]
